From ChEMBL document CHEMBL1148983, “A diketopiperazine dimer from a marine-derived isolate of Aspergillus niger” (J Nat Prod, 2004)

Legend:
[1] = Inhibition of viral IRES-mediated translation in human HeLa cells after 60 mins by luciferase reporter gene assay; format: functional, cell-based; conditions: 1 h
[2] = Inhibition of mammalian 5'-Cap- RNA dependent translation in human HeLa cells after 60 mins by luciferase reporter gene assay; format: functional, cell-based; conditions: 1 h

Compound | IC50 [1] [µM] | IC50 [2] [µM]
CC(C)C[C@H]1NC(=O)[C@H]2C[C@@]3([C@@]45C[C@@H]6C(=O)N[C@H](C(C)C)C(=O)N6[C@@H]4Nc4ccccc45)c4ccccc4N[C@H]3N2C1=O | > 100 | > 100
COc1cc(O)cc2cc(O)c3c(=O)cc(C)oc3c12 | > 100 | > 100
COc1cc(C)c2c(OC)cc(=O)oc2c1-c1c(O)cc(C)c2c(OC)cc(=O)oc12 [DEMETHYLKOTANIN] | > 100 | > 100
COc1cc(O)cc2cc3oc(C)cc(=O)c3c(O)c12 | 44 | 80
